Test results reported in publication PMC12794062, “Repositioning a Human Kinase Platelet-Derived Growth Factor Receptor Alpha Type II Inhibitor for Malaria and Inhibition of Hemozoin Formation” (ACS Medicinal Chemistry Letters, 2025).
“And” between values parts separate entries of the source, which are not always exact repeats. Identical values can stand only once. Like-named read-outs stand apart in the source and are kept apart here.

Tests used:
β-hematin formation = test: Cell-free β-hematin inhibition assay (NP-40 detergent-based); type: biochemical; conditions: 2 independent experiments, read-out: βH IC50 ± SD
P. falciparum Dd2 = test: In vitro asexual blood stage antiplasmodium activity (pLDH assay), multidrug-resistant Dd2 strain; conditions: Plasmodium falciparum, DD2, read-out: Pf IC50 ± SD Dd2, asexual blood stage; mean ± SD, n ≥ 2 independent experiments
P. falciparum K1 = test: In vitro asexual blood stage antiplasmodium activity (pLDH assay), multidrug-resistant K1 strain; conditions: mean ± SD, n ≥ 2 independent experiments
P. falciparum NF54 = test: In vitro asexual blood stage antiplasmodium activity (pLDH assay), drug sensitive NF54 strain; conditions: mean ± SD, n ≥ 2 independent experiments
[1] = In vitro microsomal metabolic stability, mouse; type: in vitro ADME; conditions: male, CD1, mouse, mouse liver microsomes, pH 7.4; read-out: CLint,app (m)
[2] = test system: Chinese Hamster Ovarian (CHO) cells; test: In vitro cytotoxicity, MTT assay; conditions: CHO IC50/PfNF54 IC50
[3] = In vitro cytotoxicity, MTT assay; conditions: Chinese hamster, Chinese Hamster Ovarian (CHO) cells
[4] = Solubility, miniaturised shake flask method, HPLC-DAD; type: physicochemical; conditions: aqueous solution, 25 °C, aqueous buffer, thermodynamic from solid; pH 6.5; footnote: thermodynamic solubility, title and text: kinetic
[5] = In vitro microsomal metabolic stability, rat; type: in vitro ADME; conditions: male, Sprague Dawley, rat liver microsomes, pH 7.4, read-out: CLint,app (r)
[6] = In vitro microsomal metabolic stability, human; type: in vitro ADME; conditions: both sexes, human liver microsomes, pH 7.4, read-out: CLint,app (h)
[7] = test system: heme species (free heme, hemozoin) in NF54 parasites; test: Cellular heme fractionation assay; type: cell-based, Plasmodium falciparum; conditions: 0.5× to 3× IC50, NF54 parasites
[8] = Plasmodium falciparum, K1, read-out: Pf IC50 ± SD K1, asexual blood stage
[9] = Plasmodium falciparum, NF54, read-out: Pf IC50 ± SD NF54, asexual blood stage
[10] = read-out: Pf IC50 ± SD K1, asexual blood stage

SMILES	IC50 (β-hematin formation)	IC50 (P. falciparum Dd2) [nM]	IC50 (P. falciparum K1; [8]) [nM]	IC50 (P. falciparum NF54; [9]) [nM]	further results
Nc1ncccc1/C=C/c1cncc(C(=O)NCCc2ccc(Cl)cc2Cl)c1 [Compound 7]	17900 ± 200 nM	5470 ± 540	960 ± 390	340 ± 240	–
Cc1cnc(N)c(/C=C/c2cncc(C(=O)NCc3ccc(Cl)cc3Cl)c2)c1 [Compound 20]	–	190 ± 110	250 ± 120	160 ± 70	–
Cc1cncc(/C=C/c2cncc(C(=O)NCCc3ccc(Cl)cc3Cl)c2)c1 [Compound 6]	26000 ± 7000 nM	–	–	1180 ± 380	–
Cc1cnc(N)c(/C=C/c2cncc(C(=O)Nc3ccc(Cl)cc3)c2)c1 [Compound 23]	–	190	–	140 ± 20	CLint scaled at 1 µM [1]: 153 mL/min/kg; selectivity index [SI] [2]: 150; IC50 [3]: 21000 nM; solubility thermodynamic at 20 h [4]: < 5 µM; CLint scaled at 1 µM [5]: 62 mL/min/kg; CLint scaled at 1 µM [6]: 64 mL/min/kg
Cc1cnc(N)c(/C=C/c2cncc(C(=O)NCCc3ccc(Cl)cc3)c2)c1 [Compound 18]	15000 ± 2000 nM	–	< 1000	–	IC50 (P. falciparum K1; [10]): 720 ± 430 nM
Nc1ccncc1/C=C/c1cncc(C(=O)NCCc2ccc(Cl)cc2Cl)c1 [Compound 12]	–	920 ± 50	–	140	–
Nc1cncc(/C=C/c2cncc(C(=O)NCCc3ccc(Cl)cc3Cl)c2)c1 [Compound 9]	–	–	> 6000	480 ± 260	–
O=C(NCCc1ccc(Cl)cc1Cl)c1cncc(/C=C/c2cccnc2)c1 [Compound 10]	15900 ± 100 nM	–	–	2630 ± 2270	–
Cc1cnc(N)c(/C=C/c2cscc2C(=O)NCCc2ccc(Cl)cc2Cl)c1 [Compound 28]	18000 ± 7000 nM	2360 ± 400	–	590 ± 350	–
Nc1ncncc1/C=C/c1cncc(C(=O)NCCc2ccc(Cl)cc2Cl)c1 [Compound 13]	–	1400 ± 50	–	480 ± 350	–
Cc1cnc(N)c(/C=C/c2cccc(C(=O)NCCc3ccc(Cl)cc3Cl)c2)c1 [Compound 27]	13000 ± 4000 nM	–	1650 ± 270	620 ± 70	–
Cc1cnc(N)c(/C=C/c2cncc(C(=O)NCCc3ccncc3)c2)c1 [Compound 24]	62000 ± 5000 nM	–	–	2060 ± 690	–
Cc1cnc(N)c(/C=C/c2cncc(C(=O)NCCc3ccccc3)c2)c1 [Compound 19]	–	< 1000	< 1000	320 ± 60	IC50 (P. falciparum K1; [10]): 580 ± 160 nM
Cc1cnc(N)c(/C=C/c2cncc(C(=O)NCCc3ccc(Cl)cc3Cl)c2)c1 [Compound 4]	13000 ± 2000 nM	–	590 ± 40	220 ± 30	free heme, dose response [7]: dose-dependent increase in free heme; hemozoin, dose response [7]: decrease in hemozoin
Cc1cnc(N)c(/C=C/c2cncc(C(=O)Nc3ccc(Cl)cc3Cl)c2)c1 [Compound 22]	< 10000 nM and 8000 nM	350 ± 50	–	200 ± 60	–
Cc1cnc(N)c(/C=C/c2cncc(C(=O)NCc3cc(Cl)cc(Cl)c3)c2)c1 [Compound 21]	< 10000 nM and 5000 nM	–	460 ± 170	90	–
O=C(NCCc1ccc(Cl)cc1Cl)c1cncc(/C=C/c2ccccc2)c1 [Compound 11]	22000 ± 2000 nM	–	–	4280	IC50 (P. falciparum NF54; read-out: Pf IC50 ± SD NF54, asexual blood stage): 4820 ± 1550 nM
Cc1cnc(N)c(/C=C/c2cncc(C(=O)NCCC3CCNCC3)c2)c1 [Compound 25]	232000 ± 27000 nM	–	–	> 6000	–
Cc1ccc(N)c(/C=C/c2cncc(C(=O)NCCc3ccc(Cl)cc3Cl)c2)c1 [Compound 5]	18400 ± 200 nM	–	–	2600 ± 1470	–
Nc1ccc(/C=C/c2cncc(C(=O)NCCc3ccc(Cl)cc3Cl)c2)cn1 [Compound 8]	–	2210 ± 1160	–	510 ± 420	–
Cc1cnc(N)c(/C=C/c2cccc(C(=O)NCCc3ccc(Cl)cc3Cl)n2)c1 [Compound 26]	27000 ± 7000 nM	3190 ± 380	–	780 ± 30	–
